Results on one sequence are retold here after patent publication US20020164348A1 (priority 2000, published 2002).

Assay [1] concerns the target T1, poliovirus polymerase (Poliovirus type 1, UniProt P03300).
In assay [2] the target is T1, poliovirus polymerase. This is another data set of the same source.
In assay [3] the target is T1, poliovirus polymerase. This is another data set of the same source.
Assay [4] has as its target lattices of poliovirus polymerase (Poliovirus type 1, UniProt P03300).

T1 sequence (P03300 1749-2209 limits assumed): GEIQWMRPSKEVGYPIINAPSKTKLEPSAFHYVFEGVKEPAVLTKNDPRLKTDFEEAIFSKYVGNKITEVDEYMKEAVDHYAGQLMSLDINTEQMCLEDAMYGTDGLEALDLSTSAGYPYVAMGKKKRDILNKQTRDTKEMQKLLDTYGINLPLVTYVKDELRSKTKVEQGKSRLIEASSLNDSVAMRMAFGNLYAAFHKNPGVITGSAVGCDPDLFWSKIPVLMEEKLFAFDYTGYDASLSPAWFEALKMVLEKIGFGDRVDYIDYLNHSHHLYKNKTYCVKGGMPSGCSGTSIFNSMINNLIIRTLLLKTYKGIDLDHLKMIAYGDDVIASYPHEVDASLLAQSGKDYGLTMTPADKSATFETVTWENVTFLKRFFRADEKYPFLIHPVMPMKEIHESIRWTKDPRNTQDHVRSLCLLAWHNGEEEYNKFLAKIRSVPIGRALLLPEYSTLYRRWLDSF
Chain of lattices of poliovirus polymerase (P03300 1749-2209 limits assumed): as above

With “KPHKCTFEGCRKSYSRSTNLRRHLNSH (SEQ ID NO:5) [Peptide 1]”, at poliovirus polymerase [1], the “amount of UTP incorporated” value is given as “diminished”. For the same sequence, at poliovirus polymerase [2], the “cooperativity of the elongation reaction” value is “loss of cooperativity”, the “inhibition of poliovirus polymerase” value was “inhibits poliovirus polymerase effectively” and the “inhibition of the polymerase reaction” value is reported as “marked inhibition”. The UTP incorporation result on poliovirus polymerase [3] is given as “dramatic stimulation”. Moreover, the “sheets and tubes of polymerase by electron microscopy” value in assay [4] was “replaced by large aggregates and more narrow ribbons”.
